What was measured:
Type in all cases: functional
MOLT-4 [1] = experiment: Cytotoxicity against human MOLT4 cells assessed as growth inhibition after 48 hrs by sulforhodamine B assay; conditions: MOLT-4, 48 h; for CC50: read-out: LC50 (the source's name)
RPMI-8226 = experiment: Cytotoxicity against human RPMI8226 cells assessed as growth inhibition after 48 hrs by sulforhodamine B assay; conditions: RPMI-8226, 48 h
NCI-H23 = experiment: Cytotoxicity against human NCI-H23 cells assessed as growth inhibition after 48 hrs by sulforhodamine B assay; conditions: NCI-H23, 48 h; for CC50: read-out: LC50 (the source's name)
PC-3 = experiment: Cytotoxicity against human PC3 cells assessed as growth inhibition after 48 hrs by sulforhodamine B assay; conditions: PC-3, 48 h
ACHN = experiment: Cytotoxicity against human ACHN cells assessed as cell growth at 0.01 uM after 48 hrs by sulforhodamine B assay relative to control; conditions: read-out: Activity
786-0 [2] = experiment: Cytotoxicity against human 786-0 cells assessed as cell growth at 0.01 uM after 48 hrs by sulforhodamine B assay relative to control; conditions: 786-0, 48 h, read-out: Activity
OVCAR-8 = experiment: Cytotoxicity against human OVCAR8 cells assessed as cell growth at 0.01 uM after 48 hrs by sulforhodamine B assay relative to control; conditions: OVCAR-8, 48 h, read-out: Activity
IGROV-1 [3] = experiment: Cytotoxicity against human IGROV1 cells assessed as cell growth at 0.01 uM after 48 hrs by sulforhodamine B assay relative to control; conditions: IGROV-1, 48 h, read-out: Activity
SK-MEL-28 [4] = experiment: Cytotoxicity against human SK-MEL-28 cells assessed as cell growth at 0.01 uM after 48 hrs by sulforhodamine B assay relative to control; conditions: SK-MEL-28, 48 h, read-out: Activity
U-251 = experiment: Cytotoxicity against human U251 cells assessed as cell growth at 0.01 uM after 48 hrs by sulforhodamine B assay relative to control; conditions: U-251, 48 h, read-out: Activity
HCT-15 [5] = experiment: Cytotoxicity against human HCT15 cells assessed as cell growth at 0.1 uM after 48 hrs by sulforhodamine B assay relative to control; conditions: HCT-15, 48 h, read-out: Activity
MDA-MB-435 = experiment: Cytotoxicity against human MDA-MB-435 cells assessed as cell growth at 0.1 uM after 48 hrs by sulforhodamine B assay relative to control; conditions: MDA-MB-435, 48 h, read-out: Activity
OVCAR-5 = experiment: Cytotoxicity against human OVCAR5 cells assessed as cell growth at 0.1 uM after 48 hrs by sulforhodamine B assay relative to control; conditions: OVCAR-5, 48 h, read-out: Activity
SK-OV-3 = experiment: Cytotoxicity against human SKOV3 cells assessed as cell growth at 0.1 uM after 48 hrs by sulforhodamine B assay relative to control; conditions: SK-OV-3, 48 h, read-out: Activity
786-0 [6] = experiment: Cytotoxicity against human 786-0 cells assessed as cell growth at 0.1 uM after 48 hrs by sulforhodamine B assay relative to control; conditions: 786-0, 48 h, read-out: Activity
RXF 393 [7] = experiment: Cytotoxicity against human RXF393 cells assessed as cell growth at 0.1 uM after 48 hrs by sulforhodamine B assay relative to control; conditions: RXF 393, 48 h, read-out: Activity
UO-31 = experiment: Cytotoxicity against human UO31 cells assessed as cell growth at 0.1 uM after 48 hrs by sulforhodamine B assay relative to control; conditions: UO-31, 48 h, read-out: Activity
MDA-MB-231 = experiment: Cytotoxicity against human MDA-MB-231 cells assessed as cell growth at 0.1 uM after 48 hrs by sulforhodamine B assay relative to control; conditions: MDA-MB-231, 48 h, read-out: Activity
K562 = experiment: Cytotoxicity against human K562 cells assessed as cell growth at 1 uM after 48 hrs by sulforhodamine B assay relative to control; conditions: K562, 48 h, read-out: Activity
HCC 2998 [8] = experiment: Cytotoxicity against human HCC2998 cells assessed as cell growth at 1 uM after 48 hrs by sulforhodamine B assay relative to control; conditions: HCC 2998, 48 h, read-out: Activity
HCT-15 [9] = experiment: Cytotoxicity against human HCT15 cells assessed as cell growth at 1 uM after 48 hrs by sulforhodamine B assay relative to control; conditions: HCT-15, 48 h, read-out: Activity
SNB-19 = experiment: Cytotoxicity against human SNB19 cells assessed as cell growth at 1 uM after 48 hrs by sulforhodamine B assay relative to control; conditions: SNB-19, 48 h, read-out: Activity
UACC-62 = experiment: Cytotoxicity against human UACC62 cells assessed as cell growth at 1 uM after 48 hrs by sulforhodamine B assay relative to control; conditions: UACC-62, 48 h, read-out: Activity
786-0 [10] = experiment: Cytotoxicity against human 786-0 cells assessed as cell growth at 1 uM after 48 hrs by sulforhodamine B assay relative to control; conditions: 786-0, 48 h, read-out: Activity
A498 = experiment: Cytotoxicity against human A498 cells assessed as cell growth at 1 uM after 48 hrs by sulforhodamine B assay relative to control; conditions: A498, 48 h, read-out: Activity
RXF 393 [11] = experiment: Cytotoxicity against human RXF393 cells assessed as cell growth at 1 uM after 48 hrs by sulforhodamine B assay relative to control; conditions: RXF 393, 48 h, read-out: Activity
MOLT-4 [12] = experiment: Cytotoxicity against human MOLT4 cells assessed as cell growth at 10 uM after 48 hrs by sulforhodamine B assay relative to control; conditions: MOLT-4, 48 h, read-out: Activity
IGROV-1 [13] = experiment: Cytotoxicity against human IGROV1 cells assessed as cell growth at 10 uM after 48 hrs by sulforhodamine B assay relative to control; conditions: IGROV-1, 48 h, read-out: Activity
OVCAR-4 = experiment: Cytotoxicity against human OVCAR4 cells assessed as cell growth at 10 uM after 48 hrs by sulforhodamine B assay relative to control; conditions: OVCAR-4, 48 h, read-out: Activity
NCI/ADR-RES = experiment: Cytotoxicity against human NCI/ADR-RES cells assessed as cell growth at 10 uM after 48 hrs by sulforhodamine B assay relative to control; conditions: read-out: Activity
TK-10 = experiment: Cytotoxicity against human TK10 cells assessed as cell growth at 10 uM after 48 hrs by sulforhodamine B assay relative to control; conditions: TK-10, 48 h, read-out: Activity
HCC 2998 [14] = experiment: Cytotoxicity against human HCC2998 cells assessed as cell growth at 100 uM after 48 hrs by sulforhodamine B assay relative to control; conditions: HCC 2998, 48 h, read-out: Activity
HCT-15 [15] = experiment: Cytotoxicity against human HCT15 cells assessed as cell growth at 100 uM after 48 hrs by sulforhodamine B assay relative to control; conditions: HCT-15, 48 h, read-out: Activity
HT-29 = experiment: Cytotoxicity against human HT-29 cells assessed as cell growth at 100 uM after 48 hrs by sulforhodamine B assay relative to control; conditions: HT-29, 48 h, read-out: Activity
SK-MEL-28 [16] = experiment: Cytotoxicity against human SK-MEL-28 cells assessed as cell growth at 100 uM after 48 hrs by sulforhodamine B assay relative to control; conditions: SK-MEL-28, 48 h, read-out: Activity
BT-549 = experiment: Cytotoxicity against human BT549 cells assessed as cell growth at 100 uM after 48 hrs by sulforhodamine B assay relative to control; conditions: BT-549, 48 h, read-out: Activity

SMILES: COc1ccc(-c2cc(/C=C/C(=O)c3ccc(OC)c(OC)c3)[nH]n2)cc1
- GI50 (MOLT-4 [1]): 2.67 µM
- TGI (MOLT-4 [1]): 8 µM
- CC50 (MOLT-4 [1]): > 100 µM
- GI50 (RPMI-8226): 0.32 µM
- LC50 (RPMI-8226): 8.16 µM
- TGI (RPMI-8226): 1.33 µM
- GI50 (NCI-H23): 2.47 µM
- TGI (NCI-H23): 6.33 µM
- CC50 (NCI-H23): 34.1 µM
- GI50 (PC-3): 1.45 µM
- LC50 (PC-3): 8.3 µM
- TGI (PC-3): 3.46 µM
- growth at 0.01 µM (ACHN): 100%
- growth at 0.01 µM (786-0 [2]): 100%
- growth at 0.01 µM (OVCAR-8): 93%
- growth at 0.01 µM (IGROV-1 [3]): 97%
- growth at 0.01 µM (SK-MEL-28 [4]): 101%
- growth at 0.01 µM (U-251): 95%
- growth at 0.1 µM (HCT-15 [5]): 97%
- growth at 0.1 µM (MDA-MB-435): 95%
- growth at 0.1 µM (OVCAR-5): 89%
- growth at 0.1 µM (SK-OV-3): 109%
- growth at 0.1 µM (786-0 [6]): 102%
- growth at 0.1 µM (RXF 393 [7]): 93%
- growth at 0.1 µM (UO-31): 87%
- growth at 0.1 µM (MDA-MB-231): 91%
- growth at 1 µM (K562): 56%
- growth at 1 µM (HCC 2998 [8]): 102%
- growth at 1 µM (HCT-15 [9]): 65%
- growth at 1 µM (SNB-19): 80%
- growth at 1 µM (UACC-62): 85%
- growth at 1 µM (786-0 [10]): 86%
- growth at 1 µM (A498): 69%
- growth at 1 µM (RXF 393 [11]): 72%
- growth at 10 µM (MOLT-4 [12]): -10%
- growth at 10 µM (IGROV-1 [13]): -60%
- growth at 10 µM (OVCAR-4): -27%
- growth at 10 µM (NCI/ADR-RES): 15%
- growth at 10 µM (TK-10): -59%
- growth at 100 µM (HCC 2998 [14]): -95%
- growth at 100 µM (HCT-15 [15]): -92%
- growth at 100 µM (HT-29): -81%
- growth at 100 µM (SK-MEL-28 [16]): -100%
- growth at 100 µM (BT-549): -99%

SMILES: COc1ccc(C(=O)/C=C/c2cc(-c3cc(OC)c(OC)c(OC)c3)n[nH]2)cc1
- TGI (MOLT-4 [1]): 6.82 µM
- CC50 (MOLT-4 [1]): > 100 µM
- LC50 (RPMI-8226): > 100 µM
- TGI (RPMI-8226): 2.49 µM
- TGI (NCI-H23): 12.2 µM
- CC50 (NCI-H23): > 100 µM
- growth at 0.01 µM (ACHN): 102%
- growth at 0.01 µM (786-0 [2]): 98%
- growth at 0.01 µM (OVCAR-8): 95%
- growth at 0.01 µM (IGROV-1 [3]): 101%
- growth at 0.01 µM (SK-MEL-28 [4]): 105%
- growth at 0.01 µM (U-251): 97%
- growth at 0.1 µM (HCT-15 [5]): 100%
- growth at 0.1 µM (MDA-MB-435): 95%
- growth at 0.1 µM (OVCAR-5): 97%
- growth at 0.1 µM (SK-OV-3): 99%
- growth at 0.1 µM (786-0 [6]): 96%
- growth at 0.1 µM (RXF 393 [7]): 90%
- growth at 0.1 µM (UO-31): 96%
- growth at 0.1 µM (MDA-MB-231): 94%
- growth at 1 µM (K562): 89%
- growth at 1 µM (HCC 2998 [8]): 94%
- growth at 1 µM (HCT-15 [9]): 72%
- growth at 1 µM (SNB-19): 79%
- growth at 1 µM (UACC-62): 95%
- growth at 1 µM (786-0 [10]): 94%
- growth at 1 µM (A498): 84%
- growth at 1 µM (RXF 393 [11]): 67%
- growth at 10 µM (MOLT-4 [12]): -20%
- growth at 10 µM (IGROV-1 [13]): -47%
- growth at 10 µM (OVCAR-4): -7%
- growth at 10 µM (NCI/ADR-RES): -1%
- growth at 10 µM (TK-10): -29%
- growth at 100 µM (HCC 2998 [14]): -82%
- growth at 100 µM (HCT-15 [15]): -33%
- growth at 100 µM (HT-29): -19%
- growth at 100 µM (SK-MEL-28 [16]): -87%
- growth at 100 µM (BT-549): -49%

From ChEMBL document CHEMBL4138123, “Design, synthesis and biological evaluation of novel pyrazolochalcones as potential modulators of PI3K/Akt/mTOR pathway and inducers of apoptosis in breast cancer cells” (Eur J Med Chem, 2017)
